Experimental data as given in patent US20250059179A1, “Heterocyclic Compounds and Methods of Use” (AMGEN INC., priority 2021, published 2025).

Tests used:
[1] = target: His-tagged KRAS G12D protein (Homo sapiens, UniProt P01116, G12D); assay: KRAS G12D TR-FRET Assay; format: binding; conditions: biotinylated KRPep-2d substrate, 10 μM GDP;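 further: europium anti-His antibody paired with streptavidin-d2 as FRET partners, initial 30 min incubation, then peptide 1 h and detection reagents 1 h, all at room temperature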
His-tagged KRAS G12D protein, sequence (P01116 1-188 isoform P01116-2 G12D): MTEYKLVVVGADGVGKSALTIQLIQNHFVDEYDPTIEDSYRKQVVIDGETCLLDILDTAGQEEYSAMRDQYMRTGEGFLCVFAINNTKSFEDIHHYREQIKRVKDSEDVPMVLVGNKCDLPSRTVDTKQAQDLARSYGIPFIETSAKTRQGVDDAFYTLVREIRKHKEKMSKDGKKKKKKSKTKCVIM

[2] = test system: Phosphorylation of ERK1/2 in A-427 cells; assay: Phospho-ERK1/2 MSD Assay; format: cell-based; conditions: Homo sapiens, A-427, 2 h, 2 h compound treatment, read-out: pERK (A427 cells) IC50
Description: A-427 (ATCC® HTB-53™) cells were cultured in RPMI 1640 Medium (ThermoFisher Scientific 11875093) containing 10% fetal bovine serum (ThermoFisher Scientific 16000044) and 1× penicillin-streptomycin-glutamine (ThermoFisher Scientific 10378016). Sixteen hours prior to compound treatment, A-427 cells were seeded in 96-well cell culture plates at a density of 25,000 cells/well and incubated at 37° C., 5% CO2. A compound dose-response titration was diluted in growth media, added to appropriate wells of a cell culture plate, and then incubated at 37° C., 5% CO2 for 2 h. Following compound treatment, cells were washed with ice-cold Dulbecco's phosphate-buffered saline, no Ca^2+ or Mg^2+ (ThermoFisher Scientific 14190144), and then lysed in RIPA buffer (50 mM Tris-HCl pH 7.5, 1% Igepal, 0.5% sodium deoxycholate, 150 mM NaCl, and 0.5% sodium dodecyl sulfate) containing protease inhibitors (Roche 4693132001) and phosphatase inhibitors (Roche 4906837001). Phosphorylation of ERK1/2 in compound-treated lysates was assayed using Phospho-ERK1/2 Whole Cell Lysate kits (Meso Scale Discovery K151DWD) according to the manufacturer's protocol. Assay plates were read on a Meso Scale Discovery Sector Imager 6000, and data were analyzed using a 4-parameter logistic model to calculate IC50 values.

[3] = target: GDP-bound KRAS protein (aa 1-169), containing both G12D and C118A amino acid substitutions (Homo sapiens, UniProt P01116, C118A/G12D); assay: KRAS G12D Coupled Nucleotide Exchange Assay; format: biochemical; conditions: 2 h compound pre-incubation; SOS-mediated nucleotide exchange, cRAF AlphaScreen readout;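 further: IC50 obtained by fitting the AlphaScreen signal with a four-parameter logistic curve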
GDP-bound KRAS protein (aa 1-169), containing both G12D and C118A amino acid substitutions, sequence (P01116 1-169 isoform P01116-2 G12D/C118A): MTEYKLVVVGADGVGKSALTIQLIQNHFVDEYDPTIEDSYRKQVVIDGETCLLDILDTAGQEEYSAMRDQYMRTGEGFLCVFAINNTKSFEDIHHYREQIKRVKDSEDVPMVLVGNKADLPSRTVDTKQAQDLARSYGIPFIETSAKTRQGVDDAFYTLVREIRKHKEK

SMILES	IC50 [1]	IC50 [2]	Avg 2 h Coupled Exchange IC50 [3]
Nc1nc2c(-c3c(Cl)cc4c(N5CC6CCC(C5)NC6)nc(OC[C@@]56CCCN5C[C@H](F)C6)nc4c3F)ccc(F)c2s1 (stereo partly drawn) [Example 31, 4-(4-(3,6-diazabicyclo[3.2.2]nonan-3-yl)-6-chloro-8-fluoro-2-(((2R,7aS)-2-fluorotetrahydro-1H-pyrrolizin-7a(5H)-yl)methoxy)quinazolin-7-yl)-7-fluorobenzo[d] thiazol-2-amine]	6 nM	1020 nM	5 nM
CN1CCC[C@H]1COc1nc(N2C[C@@H]3CC[C@H]2CN3)c2cc(Cl)c(-c3cccc4sc(N)nc34)c(F)c2n1 [Example 15, 4-(4-((15,4S)-2,5-diazabicyclo[2.2.2]octan-2-yl)-6-chloro-8-fluoro-2-(((S)-1-methylpyrrolidin-2-yl)methoxy)quinazolin-7-yl)benzo[d]thiazol-2-amine]	21 nM	2300 nM	14 nM
CN1CCC[C@H]1COc1nc(N2CCNC3CC32)c2cc(Cl)c(-c3cccc4sc(N)nc34)c(F)c2n1 (stereo partly drawn) [Example 20, 4-(4-(2,5-diazabicyclo[4.1.0]heptan-2-yl)-6-chloro-8-fluoro-2-(((S)-1-methylpyrrolidin-2-yl)methoxy)quinazolin-7-yl)benzo[d]thiazol-2-amine]	168 nM	2510 nM	63 nM
CN1CCC[C@H]1COc1nc(N2CCCNC(=O)C2)c2cc(Cl)c(-c3cccc4sc(N)nc34)c(F)c2n1 [Example 22, 4-(7-(2-aminobenzo[d]thiazol-4-yl)-6-chloro-8-fluoro-2-(((S)-1-methylpyrrolidin-2-yl)methoxy)quinazolin-4-yl)-1,4-diazepan-2-one]	168 nM	–	114 nM
Nc1nc2c(-c3c(Cl)cc4c(N5CCNCC5)nc(OCC56CCCN5CCC6)nc4c3F)ccc(F)c2s1 [Example 8, 4-(6-chloro-8-fluoro-4-(piperazin-1-yl)-2-((tetrahydro-1H-pyrrolizin-7a(5H)-yl)methoxy)quinazolin-7-yl)-7-fluorobenzo[d] thiazol-2-amine]	9 nM	–	7 nM
CN1CCC[C@H]1COc1nc(N2CCNC(=O)C2)c2cc(Cl)c(-c3cccc4sc(N)nc34)c(F)c2n1 [Example 23, 4-(7-(2-aminobenzo[d]thiazol-4-yl)-6-chloro-8-fluoro-2-(((S)-1-methylpyrrolidin-2-yl)methoxy)quinazolin-4-yl)piperazin-2-one]	678 nM	–	166 nM
CN1CCC[C@H]1COc1nc(N2C3CNCC2COC3)c2cc(Cl)c(-c3cccc4sc(N)nc34)c(F)c2n1 [Example 10, 4-(4-(3-oxa-7,9-diazabicyclo[3.3.1]nonan-9-yl)-6-chloro-8-fluoro-2-(((S)-1-methylpyrrolidin-2-yl)methoxy)quinazolin-7-yl)benzo[d] thiazol-2-amine]	14 nM	–	10 nM
CN1CCC[C@H]1COc1nc(N2CCNC(=O)CC2)c2cc(Cl)c(-c3cccc4sc(N)nc34)c(F)c2n1 [Example 24, 1-(7-(2-aminobenzo[d]thiazol-4-yl)-6-chloro-8-fluoro-2-(((S)-1-methylpyrrolidin-2-yl)methoxy)quinazolin-4-yl)-1,4-diazepan-5-one]	158 nM	–	172 nM
CN1C[C@H](F)C[C@H]1COc1nc(N2C[C@H]3COC[C@@H](C2)N3)c2cc(Cl)c(-c3ccc(F)c4sc(N)nc34)c(F)c2n1 [Example 41, 4-(4-((1R,5S)-3-oxa-7,9-diazabicyclo[3.3.1]nonan-7-yl)-6-chloro-8-fluoro-2-(((2S,4R)-4-fluoro-1-methylpyrrolidin-2-yl)methoxy)quinazolin-7-yl)-7-fluorobenzo[d] thiazol-2-amine]	79 nM	–	65 nM
CN1CCC[C@H]1COc1nc(N2CCNC[C@@H]2CO)c2cc(Cl)c(-c3cccc4sc(N)nc34)c(F)c2n1 [Example 37, ((2R)-1-(7-(2-aminobenzo[d]thiazol-4-yl)-6-chloro-8-fluoro-2-(((S)-1-methylpyrrolidin-2-yl)methoxy)quinazolin-4-yl)piperazin-2-yl)methanol]	1970 nM	–	388 nM
CN1CCC[C@H]1COc1nc(N2CCN[C@@H](CO)C2)c2cc(Cl)c(-c3cccc4sc(N)nc34)c(F)c2n1 [Example 25, ((2R)-4-(7-(2-aminobenzo[d]thiazol-4-yl)-6-chloro-8-fluoro-2-(((S)-1-methylpyrrolidin-2-yl)methoxy)quinazolin-4-yl)piperazin-2-yl)methanol]	239 nM	–	181 nM

Now from value to molecule:

IC50 [1]	IC50 [2]	Avg 2 h Coupled Exchange IC50 [3]	SMILES
11200 nM	–	3550 nM	CC1=C(c2nc(OC[C@@H]3CCCN3C)nc3c(F)c(-c4cccc5sc(N)nc45)c(Cl)cc23)CCNC1 [Example 147, 4-(6-chloro-8-fluoro-4-(5-methyl-1,2,3,6-tetrahydropyridin-4-yl)-2-(((S)-1-methylpyrrolidin-2-yl)methoxy)quinazolin-7-yl)benzo[d]thiazol-2-amine]
1400 nM	–	735 nM	CN1CCC[C@H]1COc1nc(N2CCNCC2)c2cc(Cl)c(-c3ccc(C(F)(F)F)c4sc(N)nc34)c(F)c2n1 [Example 131, 4-(6-chloro-8-fluoro-2-(((S)-1-methylpyrrolidin-2-yl)methoxy)-4-(piperazin-1-yl)quinazolin-7-yl)-7-(trifluoromethyl)benzo [d]thiazol-2-amine]
365 nM	–	189 nM	CN1CCC[C@H]1COc1nc(N2CCNCC2)c2cc(C#N)c(-c3cccc4sc(N)nc34)c(F)c2n1 [Example 156, 7-(2-Aminobenzo[d]thiazol-4-yl)-8-fluoro-2-(((S)-1-methylpyrrolidin-2-yl)methoxy)-4-(piperazin-1-yl)quinazoline-6-carbonitrile]
–	3950 nM	–	Nc1nc2c(-c3c(Cl)cc4c(N5CCNCC5)nc(OC[C@]56CCCN5C[C@H](F)C6)nc4c3F)cccc2s1 [Example 46, 4-(6-chloro-8-fluoro-2-(((2R,7aR)-2-fluorotetra-hydro-1H-pyrrolizin-7a(5H)-yl)methoxy)-4-(piperazin-1-yl)quinazolin-7-yl)benzo[d] thiazol-2-amine]
1620 nM	–	670 nM	CN(C)C1CN(c2nc(N3CCNCC3)c3cc(Cl)c(-c4cccc5sc(N)nc45)c(F)c3n2)C1 [Example 67, 4-(6-chloro-2-(3-(dimethylamino)azetidin-1-yl)-8-fluoro-4-(piperazin-1-yl)quinazolin-7-yl)benzo[d] thiazol-2-amine]
10 nM	–	8 nM	Nc1nc2c(-c3c(F)cc4c(N5C[C@@H]6CC[C@H]5CN6)nc(OC[C@@]56CCCN5C[C@H](F)C6)nc4c3F)ccc(F)c2s1 [Example 143, 4-(4-((1S,4S)-2,5-diazabicyclo[2.2.2]octan-2-yl)-6,8-difluoro-2-(((2R,7aS)-2-fluorotetrahydro-1H-pyrrolizin-7a(5H)-yl)methoxy)quinazolin-7-yl)-7-fluorobenzo[d]thiazol-2-amine]
4 nM	–	7 nM	Nc1nc2c(-c3c(F)cc4c(N5[C@@H]6CC[C@H]5CNC6)nc(OC[C@@]56CCCN5C[C@H](F)C6)nc4c3F)ccc(F)c2s1 [Example 142, 4-(4-((1R,5S)-3,8-diazabicyclo[3.2.1]octan-8-yl)-6,8-difluoro-2-(((2R,7aS)-2-fluorotetrahydro-1H-pyrrolizin-7a(5H)-yl)methoxy)quinazolin-7-yl)-7-fluorobenzo[d]thiazol-2-amine]
7720 nM	–	1890 nM	C[C@H](CN(C)C)Oc1nc(N2CCNCC2)c2cc(Cl)c(-c3cccc4sc(N)nc34)c(F)c2n1 [Example 69, 4-(6-chloro-2-(((R)-1-(dimethylamino)propan-2-yl)oxy)-8-fluoro-4-(piperazin-1-yl)quinazolin-7-yl)benzo[d] thiazol-2-amine]
3980 nM	–	2530 nM	CC(=O)N1CCC[C@H]1COc1nc(N2CCNCC2)c2cc(Cl)c(-c3cccc4sc(N)nc34)c(F)c2n1 [Example 71, 1-((2S)-2-(((7-(2-aminobenzo[d]thiazol-4-yl)-6-chloro-8-fluoro-4-(piperazin-1-yl)quinazolin-2-yl)oxy)methyl)pyrrolidin-1-yl)ethan-1-one]
829 nM	–	718 nM	Nc1nc2c(-c3c(Cl)cc4c(N5CCNCC5)nc(OC[C@@H]5CCC(=O)N5)nc4c3F)cccc2s1 [Example 68, (5S)-5-(((7-(2-aminobenzo[d]thiazol-4-yl)-6-chloro-8-fluoro-4-(piperazin-1-yl)quinazolin-2-yl)oxy)methyl) pyrrolidin-2-one]
